Laboratory results: patent publication US9284286B2, “Specific carboxamides as KCNQ2/3 modulators” (GRÜNENTHAL GMBH, priority 2012, dated 2016)

Target: T1, KCNQ2/3 channels (Homo sapiens, UniProt O43525+O43526)
T1 construct: expressed in transfected cells; host or cells: CHO-K1
Test: Fluorescence assay using a voltage sensitive dye (fluorimetry)
Assay type: cell-based
Details: CHO-K1 cells expressing KCNQ2/3 channels; for Emax: relative to retigabine = 100%, read-out: Fluorimetry % Efficacy (retigabine = 100%); for EC50: voltage-sensitive dye, KCl depolarisation, read-out: Fluorimetry EC50/IC50
Protocol: Pharmacological Experiments Fluorescence Assay Using a Voltage Sensitive Dye (Fluorimetry)
Human CHO-K1 cells expressing KCNQ2/3 channels are cultivated adherently at 37° C., 5% CC2 and 95% humidity in cell culture bottles (e.g. 80 cm^2 TC flasks, Nunc) with DMEM-high glucose (Sigma Aldrich, D7777) including 10% FCS (PAN Biotech, e.g. 3302-P270521) or alternatively MEM Alpha Medium (1×, liquid, Invitrogen, #22571), 10% fetal calf serum (FCS) (Invitrogen, #10270-106, heat-inactivated) and the necessary selection antibiotics.
Before being sown out for the measurements, the cells are washed with 1×DPBS buffer Ca^2+/Mg^2+-free (e.g. Invitrogen, #14190-094) and detached from the bottom of the culture vessel by using Accutase (PAA Laboratories, #L11-007) (incubation with Accutase for 15 min at 37° C.). The cell number is determined using a CASY™ cell counter (TCC, Schärfe System). Depending on the optimal density for each individual cell line, 20,000-30,000 cells/well/100 μl are seeded onto 96-well Corning™ CeIIBIND™ assay plates (Flat Clear Bottom Black Polystyrene Microplates, #3340). Freshly seeded cells are then left to settle for one hour at room temperature, followed by incubation for 24 hours at 37° C., 5% CO2 and 95% humidity.
The voltage-sensitive fluorescent dye from the Membrane Potential Assay Kit (Red™ Bulk format part R8123 for FLIPR, MDS Analytical Technologies™) is prepared by dissolving the contents of one vessel Membrane Potential Assay Kit Red Component A in 200 ml of extracellular buffer (ES buffer, 120 mM NaCl, 1 mM KCl, 10 mM HEPES, 2 mM CaCl2, 2 mM MgCl2, 10 mM glucose; pH 7.4). After removal of the nutrient medium, the cells are washed once with 200 μl of ES buffer, then loaded for 45 min at room temperature in 100 μl of dye solution in the dark.
Fluorescence measurements are carried out in a BMG Labtech FLUOstar™, BMG Labtech NOVOstar™ or BMG Labtech POLARstar™ instrument (525 nm excitation, 560 nm emission, Bottom Read mode). After incubation with the dye, 50 μl of the test substances in the desired concentrations, or 50 μl of ES buffer for control purposes, are applied to the wells of the assay plate and incubated for 30 min at room temperature while being shielded from light. The fluorescence intensity of the dye is then measured for 5 min and the fluorescence value F1 of each well is thus determined at a given, constant time. 15 μl of a KCl solution are then added to each well (final concentration of potassium ions 92 mM). The change in fluorescence intensity is subsequently monitored until all the relevant values have been obtained (mainly 5-30 min). At a given time post KCl application, a fluorescence value F2 is determined, in this case at the time of the fluorescence peak.
For calculation, the fluorescence intensity F2 is corrected for the fluorescence intensity F1, and the activity (ΔF/F) of the target compound on the potassium channel is determined as follows:
In order to determine whether a substance has agonistic activity,
[formula] can be related to
[formula] of control wells.
[formula] is determined by adding to the well only the buffer solution instead of the test substance, determining the value F1K of the fluorescence intensity, adding the potassium ions as described above, and measuring a value F2K of the fluorescence intensity. F2K and F1K are then calculated as follows: […]
A substance has an agonistic activity on the potassium channel if
[formula] is greater than
Independently of the comparison of
[formula] it is possible to conclude that a target compound has agonistic activity if
[formula] increases dose dependently.
Calculations of EC50 and IC50 values are carried out with the aid of ‘Prism v4.0’ software (GraphPad Software™).

| Emax [%] | EC50 [nM] | SMILES |
| --- | --- | --- |
| 203 | 156 | CC(C)CCNC(=O)c1ccccc1SCCC(F)(F)c1ccc(F)cc1 [Example 1, 2-[[3,3-Difluoro-3-(4-fluorophenyl)-propyl]sulfanyl]-N-(3-methyl-butyl)-benzamide] |
| 186 | 501 | CC(C)(C)CCNC(=O)c1ccccc1SCCCc1ccc(F)cc1 [Example 2, N-(3,3-Dimethyl-butyl)-2-[3-(4-fluorophenyl)-propylsulfanyl]-benzamide] |
| 118 | 1590 | CC(C)CCNC(=O)c1ncccc1SCCC(F)(F)c1ccc(F)cc1 [Example 3, 3-[[3,3-Difluoro-3-(4-fluorophenyl)-propyl]sulfanyl]-N-(3-methyl-butyl)-pyridine-2-carboxylic acid amide] |
| 228 | 849 | CC(C)CCNC(=O)c1cnccc1SCCC(F)(F)c1ccc(F)cc1 [Example 5, 4-[[3,3-Difluoro-3-(4-fluorophenyl)-propyl]sulfanyl]-N-(3-methyl-butyl)-pyridine-3-carboxylic acid amide] |
| 121 | 563 | O=C(NCc1ccc(F)cc1)c1cnccc1SCCC(F)(F)c1ccc(F)cc1 [Example 6, 4-[[3,3-Difluoro-3-(4-fluorophenyl)-propyl]sulfanyl]-N-[(4-fluorophenyl)-methyl]-pyridine-3-carboxylic acid amide] |
| 197 | 1400 | CC(C)CCNC(=O)c1ccncc1SCCC(F)(F)c1ccc(F)cc1 [Example 7, 3-[[3,3-Difluoro-3-(4-fluorophenyl)-propyl]sulfanyl]-N-(3-methyl-butyl)-pyridine-4-carboxylic acid amide] |
| 199 | 521 | CC(C)CCNC(=O)c1nccnc1SCCC(F)(F)c1ccc(F)cc1 [Example 9, 3-[[3,3-Difluoro-3-(4-fluorophenyl)-propyl]sulfanyl]-N-(3-methyl-butyl)-pyrazine-2-carboxylic acid amide] |
| 211 | 61 | CC(C)CCNC(=O)c1cncnc1SCCC(F)(F)c1ccc(F)cc1 [Example 10, 4-[[3,3-Difluoro-3-(4-fluorophenyl)-propyl]sulfanyl]-N-(3-methyl-butyl)-pyrimidine-5-carboxylic acid amide] |
| 112 | 51 | O=C(NCc1ccc(F)cc1)c1cncnc1SCCC(F)(F)c1ccc(F)cc1 [Example 11, 4-[[3,3-Difluoro-3-(4-fluorophenyl)-propyl]sulfanyl]-N-[(4-fluorophenyl)-methyl]-pyrimidine-5-carboxylic acid amide] |
| 203 | 427 | CC(C)CCNC(=O)c1ccnnc1SCCC(F)(F)c1ccc(F)cc1 [Example 12, 3-[[3,3-Difluoro-3-(4-fluorophenyl)-propyl]sulfanyl]-N-(3-methyl-butyl)-pyridazine-4-carboxylic acid amide] |
| 100 | 264 | O=C(NCc1ccc(F)cc1)c1ccnnc1SCCC(F)(F)c1ccc(F)cc1 [Example 13, 3-[[3,3-Difluoro-3-(4-fluorophenyl)-propyl]sulfanyl]-N-[(4-fluorophenyl)-methyl]-pyridazine-4-carboxylic acid amide] |
| 83 | 231 | Cc1nc(SCCC(F)(F)c2ccc(F)cc2)c(C(=O)NCc2ccc(F)cc2)s1 [Example 15, 4-[[3,3-Difluoro-3-(4-fluorophenyl)-propyl]sulfanyl]-N-[(4-fluorophenyl)-methyl]-2-methyl-thiazole-5-carboxylic acid amide] |
